For the data set the following is noted: Liquid.

SMILES strings stand for the structures. Numbers after ± are expanded uncertainties.

What is called vapor or sublimation pressure is the equilibrium pressure above the liquid or solid. On to `FCF` [difluoromethane], for which the “vapor or sublimation pressure” value is recorded as 695.4 ± 2.1 kPa (268.15 K); 952 ± 2.6 kPa (278.15 K); 1102.2 ± 3 kPa (283.15 K); 1281.2 ± 3.4 kPa (288.15 K); 1685.6 ± 4.5 kPa (298.15 K); 2185.2 ± 5.7 kPa (308.15 K). The “vapor or sublimation pressure” value (318.15 K) is 2794.8 ± 7.2 kPa.

On to `CCC` [propane], for which the “vapor or sublimation pressure” value is, setting by setting: (268.15 K) 407.9 ± 1.5 kPa; (278.15 K) 549.4 ± 1.8 kPa; (283.15 K) 636.4 ± 2 kPa; (288.15 K) 735 ± 2.2 kPa; (298.15 K) 954.8 ± 2.7 kPa; (308.15 K) 1213 ± 3.3 kPa. In addition, for the setting “318.15 K”, the “vapor or sublimation pressure” value worked out at 1530.8 ± 4.1 kPa.
